Experiments:
[1] = Acute Toxicity Test (oral, mortality by 3-days observation); conditions: mouse, in vivo, ddY male mice
Method: Using ddY strain male mice of 7-8 weeks old, each group consisting of 5 mice, a suspension of the present compound in a 1% tragacanth solution was administered orally. Then, mortality was examined by 3-days observation.

living body = conditions: background, known immunomodulating agents; cited from earlier work
adjuvant arthritis = test: Adjuvant Arthritis Inhibiting Activity (paw volume); assay type: in vivo, rat (F-344 strain male rats); conditions: measured after 24 days, * p < 0.05 (Ttest)
Method: F-344 strain male rats of 9 weeks old (Nippon Charles River), each group consisting of 8-10 rats, were employed for assessment of adjuvant arthritis inhibiting activity of the present compounds Arthritis was induced by subsutaneous injection of 100 μl of a 6% paraffin oil suspension of Mycobacterium butyricum into hind paw. The test compound was suspended in a 1% tragacanth solution and then administered orally everyday from the day of adjuvant injection up to the 21st day at a volume of 5 ml/kg. After 24 days from the sensitization, paw volume was measured Oral administration of solely a 1% tragacanth solution was applied for control.

[2] = 30 mg/Kg oral everyday to 21st day, Controls: 3.48 ± 0.11 (No. 23), 3.62 ± 0.06 (No. 40), 3.58 ± 0.20 (No. 83)
[3] = 300 mg/Kg oral everyday to 21st day, Controls: 3.48 ± 0.11 (No. 23), 3.62 ± 0.06 (No. 40)

## Cc1ccc(C(=O)SCC2C(=O)OCC2c2ccc(Cl)cc2)cc1 (stereo not drawn) [Compound 1, β-(p-chlorophenyl)-α-(p-methylbenzoylthiomethyl)-γ-butyrolactone]
[1]
  LD50 at 72 h: > 4000 mg/kg

## c1ccc([C@H]2CN3CCSC3=N2)cc1 [Levamisole, levamisole, reference compound]
[1]
  LD50 at 72 h: < 1000 mg/kg
Living body
  toxicity to a living body (in words): strong toxicity

## O=C(SC[C@@H]1C(=O)OC[C@H]1c1ccc(Cl)cc1)c1ccc(F)cc1 (relative stereo) [Compound 23]
[1]
  LD50 at 72 h: > 4000 mg/kg
Adjuvant arthritis; 3 mg/Kg oral everyday to 21st day, Control 3.48 ± 0.11
  Paw volume: 2.84 ± 0.25 mL
Adjuvant arthritis; [2]
  Paw volume: 2.78 ± 0.23 mL
Adjuvant arthritis; [3]
  Paw volume: 3.03 ± 0.25 mL

## Cc1ccc(C(=O)SCC2C(=O)OCC2c2ccccc2)cc1 (stereo not shown) [Compound 7]
[1]
  LD50 at 72 h: > 4000 mg/kg

## O=C([O-])c1ccccc1Nc1cc(Cl)ccc1C(=O)[O-].[Na+].[Na+] [N-(2-carboxyphenyl)-4-chloroanthranilic acid disodium salt]
Living body
  toxicity to a living body (in words): strong toxicity

## COc1ccc(C2COC(=O)C2CSC2CCCCC2)cc1 (stereo not drawn) [Compound 83, α-cyclohexylthiomethyl-β-(p-methoxyphenyl)-γ-butyrolactone]
Adjuvant arthritis; [2]
  Paw volume: 3.00 ± 0.16 mL

## O=C1OCC(c2ccccc2)C1CSCc1ccccc1 (stereo not shown) [Compound 84]
[1]
  LD50 at 72 h: > 4000 mg/kg

## CC(C)(S)[C@@H](N)C(=O)O [D-penicillamine]
Living body
  toxicity to a living body (in words): strong toxicity

## O=C(SCC1C(=O)OCC1c1ccc(Cl)cc1)c1ccccc1 (stereo not drawn) [Compound 74, α-benzoylthiomethyl-β-(p-chlorophenyl)-γ-butyrolactone]
[1]
  LD50 at 72 h: > 4000 mg/kg

## CC(=O)SCC1C(=O)OCC1c1ccccc1 (stereo not drawn) [Compound 40, α-acetylthiomethyl-β-phenyl-γ-butyrolactone]
[1]
  LD50 at 72 h: > 2000 mg/kg
Adjuvant arthritis; [2]
  Paw volume: 3.18 ± 0.17 mL
Adjuvant arthritis; [3]
  Paw volume: 3.18 ± 0.18 mL
